Reference: US20210076683A1, “USE OF BACILLUS METHYLOTROPHICUS AS A STIMULANT OF PLANT GROWTH AND BIOLOGICAL CONTROL MEANS, AND ISOLATES OF SAID SPECIES” (UNIVERSIDAD DE GRANADA, priority 2014, published 2021)
*1 amine or outer side, *2 acyl side, *3 side chain or, on linkers, in order; H or OH if unused. Where a SMILES comes first, the peptide text is derived from it. Bridges are numbered along the chain shown (N, C = ends). [ ]: non-standard residue; d: D form. X1 = CC(C)CCCCCCCCC[C@H](CC(=O)[*:1])O[*:2]

Experiments:
[1] = Surfactant activity of the lipopeptides (CMC, surface tension); format: physicochemical; conditions: at the CMC 0.0025%
Description: After extracting the lipopeptides following the method of Cooper et al. 1981, a yield of 0.12 g/l and 0.10 g/l of culture was obtained for strains XT1 and XT2, respectively. The type strain produced 0.6 g/l. Lipopeptide production has not been described in the case of the Bacillus strain of the commercial preparation Botrybel. More specifically, in addition to surfactin, strain XT1 object of the present invention produces other surfactant lipopeptides such as fengycin and lichenysin.
The cellular dry weight (CDW) of strains XT1, XT2 and of type strain is 2.7 g/l, 2.5 g/l and 2.9 g/l, respectively. In the case of strain XT1, the critical micelle concentration (CMC) is 0.0025% (0.025 mg/ml); a surface tension of 29.7 mN/m was obtained with this value. In the case of the surfactin produced by B. subtilis and marketed by Sigma®, values of 26.7 mN/m at the same CMC were obtained. In other words, strain XT1 produces very active lipopeptides surfactants showing activity similar to the surfactin available on the market.

[2] = test system: Anthocoris nemoralis; test: Mortality by ingestion in Anthocoris nemoralis; conditions: observed 6 days; cultures 5×10^8 CFU/ml, surfactants and Tween 80 1/1000; water control 10

Compound | surface tension [1] [mN/m] | Mortality by ingestion [2]
CC(C)CCCCCCCCC[C@@H]1CC(=O)N[C@@H](CCC(=O)O)C(=O)N[C@@H](CC(C)C)C(=O)N[C@H](CC(C)C)C(=O)N[C@@H](C(C)C)C(=O)N[C@@H](CC(=O)O)C(=O)N[C@H](CC(C)C)C(=O)N[C@@H](CC(C)C)C(=O)O1 [surfactin] (EL[dL]VD[dL]L; linker N-C via X1) | 26.7 | 
Tween 80 |  | 5 percentage of individuals
